Patent US20090036461A1, “Use of Azabicyclo Hexane Derivatives” (priority 2005, published 2009)

Experiments:
[1] = system: male rats; assay: copulatory (consummatory) behaviour of male rats with a receptive female; type: in vivo, Wistar rats; details: -1 hour; for Ejaculation latency / Intromission latency / Mount latency / Post ejaculatory interval / n. of intromissions / n. of mounts: male rats, n = 9, mean ± s.e.m.
Procedure: (§1) Background: In order to evaluate the effect on natural rewards and to potentially differentiate this approach compared with clinically active gold standards, the effect of the title compound (0.03, 0.3 and 3 mg/kg i.p.; −1 hour, prepared in an analogous way with Example 40) on sexual desire and consummatory performance was evaluated in the rat after acute administration. The effect of the title compound was assessed according to a Latin squared experimental design in male (about 300 g upon arrival) and female (250 g upon arrival) Wistar rats.
(§2) Method—Male rats, sexually experienced were treated with the title compound and submitted 1-hr later to a sexual incentive motivation test (10 minutes) in which male rats were singly exposed to receptive female and active male incentives (Agmo A., Journal of Comparative Psychology. 117(1), March 2003, 3-14). The following parameters were scored: (1) time spent in the incentive zones (close to the incentive cage); (2) number of visits to the zones, and (3) preference score (time spent in the sexual incentive zone/(time in the sexual incentive zone+time in the social incentive zone)). Immediately after the incentive motivation test each subject was transferred to an observation cage in the presence of a receptive female and its copulatory behaviour was then recorded until the end of the 1st post-ejaculatory interval. In the observation cage, the following behavioural parameters were recorded: (1) mount latency (time from the introduction of the female until the first mount with pelvic thrusting); (2) intromission latency (time from the introduction of the female until the first mount with vaginal penetration); (3) ejaculation latency (time from the 1st intromission until ejaculation); (4) post-ejaculatory interval (time from ejaculation until the following intromission); (5) number of mounts, and (6) number of intromission.
(§3) Results—Data are expressed as mean ±s.e.m.

[2] = target: D3 (Homo sapiens, UniProt P35462); assay: functional pKi (fpKi) at D3, comparison of separated enantiomers; type: biochemical; details: difference in fpKi between the two separated enantiomers of the same example
[3] = system: male rats; assay: sexual incentive motivation test in male rats after acute administration; type: in vivo, Wistar rats; details: -1 hour; for Time sexual incentive zone (s) / Time social incentive zone / n. of visits social incentive zone / n. of visits to sex. Incentive zone: male rats, n = 9, mean ± s.e.m.
Procedure: as §1, §2, §3

[4] = 0.03, 0.3 and 3 mg/kg i.p., result in words

Chain of D3 (P35462 whole entry): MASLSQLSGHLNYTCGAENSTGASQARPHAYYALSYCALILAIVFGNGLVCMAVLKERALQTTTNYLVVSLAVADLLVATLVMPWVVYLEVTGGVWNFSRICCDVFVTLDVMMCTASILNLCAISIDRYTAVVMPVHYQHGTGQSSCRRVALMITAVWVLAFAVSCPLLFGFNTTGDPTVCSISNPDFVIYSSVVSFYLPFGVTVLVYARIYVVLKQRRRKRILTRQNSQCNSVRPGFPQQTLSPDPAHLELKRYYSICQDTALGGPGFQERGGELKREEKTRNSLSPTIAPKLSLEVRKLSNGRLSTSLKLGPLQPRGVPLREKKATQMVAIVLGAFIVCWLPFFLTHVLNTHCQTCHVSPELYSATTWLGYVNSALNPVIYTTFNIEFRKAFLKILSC

Cc1ncoc1-c1nnc(SCCCN2C[C@@H]3C[C@]3(c3ccc(C(F)(F)F)cc3F)C2)n1C.Cl (single isomer, unassigned) [Example 40]
effect on ejaculation patterns [1, 4]: significant increase in the number of mounts, ejaculation latency and post-ejaculatory interval | Ejaculation latency ([1]; 0.03 mg/kg i.p.): 202.2 ± 19.6 s | Intromission latency ([1]; 0.03 mg/kg i.p.): 6.3 ± 0.8 s | Mount latency ([1]; 0.03 mg/kg i.p.): 4.6 ± 0.8 s | Post ejaculatory interval ([1]; 0.03 mg/kg i.p.): 403.0 ± 37.4 s | n. of intromissions ([1]; 0.03 mg/kg i.p.): 15.8 ± 1.3 | n. of mounts ([1]; 0.03 mg/kg i.p.): 3.4 ± 0.7 | Ejaculation latency ([1]; 0.3 mg/kg i.p.): 228.3 ± 53.3 s | Intromission latency ([1]; 0.3 mg/kg i.p.): 7.0 ± 1.1 s | Mount latency ([1]; 0.3 mg/kg i.p.): 5.3 ± 0.8 s | Post ejaculatory interval ([1]; 0.3 mg/kg i.p.): 455.3 ± 73.4 s | n. of intromissions ([1]; 0.3 mg/kg i.p.): 15.6 ± 1.5 | n. of mounts ([1]; 0.3 mg/kg i.p.): 2.3 ± 0.8 | Ejaculation latency ([1]; 3 mg/kg i.p.): 272.8 ± 41.6 s | Intromission latency ([1]; 3 mg/kg i.p.): 8.8 ± 2.0 s | Mount latency ([1]; 3 mg/kg i.p.): 6.4 ± 1.5 s | Post ejaculatory interval ([1]; 3 mg/kg i.p.): 485.1 ± 67.3 s | n. of intromissions ([1]; 3 mg/kg i.p.): 16.8 ± 2.1 | n. of mounts ([1]; 3 mg/kg i.p.): 4.8 ± 1.2 | fpKi (D3) higher than the other enantiomer [2]: > 1 log-unit | effect on sexual desire of male rats exposed to sexual and social stimuli [3, 4]: did not affect sexual desire | Time sexual incentive zone (s) ([3]; 0.03 mg/kg i.p.): 367.57 ± 23.53++ s | Time social incentive zone ([3]; 0.03 mg/kg i.p.): 73.69 ± 12.48 s | n. of visits social incentive zone ([3]; 0.03 mg/kg i.p.): 15.33 ± 1.60 | n. of visits to sex. Incentive zone ([3]; 0.03 mg/kg i.p.): 23.44 ± 1.95++ | Time sexual incentive zone (s) ([3]; 0.3 mg/kg i.p.): 335.12 ± 32.47++ s | Time social incentive zone ([3]; 0.3 mg/kg i.p.): 86.84 ± 13.38 s | n. of visits social incentive zone ([3]; 0.3 mg/kg i.p.): 17.44 ± 2.49 | n. of visits to sex. Incentive zone ([3]; 0.3 mg/kg i.p.): 23.89 ± 2.06++ | Time sexual incentive zone (s) ([3]; 3 mg/kg i.p.): 355.91 ± 13.70++ s | Time social incentive zone ([3]; 3 mg/kg i.p.): 76.83 ± 10.05 s | n. of visits social incentive zone ([3]; 3 mg/kg i.p.): 14.00 ± 1.85 | n. of visits to sex. Incentive zone ([3]; 3 mg/kg i.p.): 21.78 ± 1.72++
